Laboratory results: patent publication US8940724B2, “Quinoline derivitives and their uses” (Amgen Inc., priority 2009, dated 2015)

Each compound was assayed against T1, PI3Kδ (Homo sapiens, UniProt O00329) (assay: PI3Kδ Alphascreen assay).
T1 construct: Full length p110 subunits of PI3k α, β and δ, N-terminally labeled with polyHis tag; polyHis (N); made in house; host or cells: Sf9 insect cells (baculovirus)
Type: biochemical

T1 sequence (O00329 whole entry): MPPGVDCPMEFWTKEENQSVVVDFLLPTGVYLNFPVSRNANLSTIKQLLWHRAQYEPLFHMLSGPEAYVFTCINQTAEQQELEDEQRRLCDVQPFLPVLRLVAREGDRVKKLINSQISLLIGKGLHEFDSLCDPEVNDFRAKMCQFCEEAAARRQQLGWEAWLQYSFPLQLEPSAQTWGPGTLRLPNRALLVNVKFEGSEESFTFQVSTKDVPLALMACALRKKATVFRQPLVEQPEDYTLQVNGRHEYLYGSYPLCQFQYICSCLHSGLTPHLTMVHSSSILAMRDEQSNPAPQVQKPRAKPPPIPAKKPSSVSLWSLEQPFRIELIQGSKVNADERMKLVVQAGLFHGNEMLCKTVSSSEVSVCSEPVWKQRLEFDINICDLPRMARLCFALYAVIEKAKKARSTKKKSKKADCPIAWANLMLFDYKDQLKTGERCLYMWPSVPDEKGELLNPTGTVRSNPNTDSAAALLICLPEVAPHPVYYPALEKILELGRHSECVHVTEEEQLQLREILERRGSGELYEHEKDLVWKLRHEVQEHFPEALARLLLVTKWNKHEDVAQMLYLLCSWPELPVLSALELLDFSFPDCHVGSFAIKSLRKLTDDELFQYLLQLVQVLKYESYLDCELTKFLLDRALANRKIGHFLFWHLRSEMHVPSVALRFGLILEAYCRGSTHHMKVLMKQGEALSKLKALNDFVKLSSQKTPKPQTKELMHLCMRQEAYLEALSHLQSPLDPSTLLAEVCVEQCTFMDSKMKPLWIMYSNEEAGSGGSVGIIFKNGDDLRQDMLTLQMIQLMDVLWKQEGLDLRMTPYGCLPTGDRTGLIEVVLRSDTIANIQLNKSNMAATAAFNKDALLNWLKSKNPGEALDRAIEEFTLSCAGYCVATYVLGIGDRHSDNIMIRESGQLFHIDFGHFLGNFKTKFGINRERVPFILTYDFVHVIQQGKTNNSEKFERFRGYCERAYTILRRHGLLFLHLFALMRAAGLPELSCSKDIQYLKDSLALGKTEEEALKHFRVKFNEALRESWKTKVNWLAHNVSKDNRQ
T1 sequence (P27986 whole entry partner): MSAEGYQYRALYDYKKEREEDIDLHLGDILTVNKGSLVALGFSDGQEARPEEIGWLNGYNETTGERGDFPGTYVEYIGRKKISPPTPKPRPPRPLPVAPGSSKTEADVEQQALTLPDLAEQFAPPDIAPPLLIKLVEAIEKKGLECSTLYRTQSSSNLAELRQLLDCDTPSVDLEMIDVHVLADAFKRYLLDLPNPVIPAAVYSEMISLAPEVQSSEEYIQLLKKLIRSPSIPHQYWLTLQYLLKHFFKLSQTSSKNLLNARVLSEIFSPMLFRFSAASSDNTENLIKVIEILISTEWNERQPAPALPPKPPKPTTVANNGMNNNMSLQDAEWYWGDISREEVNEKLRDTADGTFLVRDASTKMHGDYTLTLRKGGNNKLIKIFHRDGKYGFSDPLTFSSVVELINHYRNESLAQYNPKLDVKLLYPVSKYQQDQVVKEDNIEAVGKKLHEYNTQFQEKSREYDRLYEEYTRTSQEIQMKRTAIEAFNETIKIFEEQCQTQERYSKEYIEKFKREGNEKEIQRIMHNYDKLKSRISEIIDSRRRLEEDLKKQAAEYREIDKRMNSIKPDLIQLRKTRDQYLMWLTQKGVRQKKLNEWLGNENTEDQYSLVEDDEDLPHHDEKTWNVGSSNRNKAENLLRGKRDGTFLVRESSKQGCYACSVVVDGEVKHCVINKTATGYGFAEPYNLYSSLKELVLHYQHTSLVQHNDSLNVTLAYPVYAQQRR

Row | Ki | SMILES
1 | 344 nM | Cc1c(-c2ccc(C(F)(F)F)cc2C(F)(F)F)nc2cc(F)cc(F)c2c1Nc1cc(N2CCOCC2)cnc1N1CCOCC1 [2-(2,4-bis(trifluoromethyl)phenyl)-N-(2,5-di-4-morpholinyl-3-pyridinyl)-5,7-difluoro-3-methyl-4-quinolinamine]
2 | 112 nM | Cc1c(N2CCN(C(=O)OC(C)(C)C)[C@@H](C)C2)nc2cc(F)cc(F)c2c1Nc1cncc(N2CCOCC2)c1 [tert-butyl (2S)-4-(5,7-difluoro-3-methyl-4-((5-(4-morpholinyl)-3-pyridinyl)amino)-2-quinolinyl)-2-methyl-1-piperazinecarboxylate]
3 | 1.78 nM | Cc1c(-c2ccccc2S(C)(=O)=O)nc2cc(F)cc(F)c2c1Nc1cncc(C2=CCOCC2)c1 [N-(5-(3,6-dihydro-2H-pyran-4-yl)-3-pyridinyl)-5,7-difluoro-3-methyl-2-(2-(methylsulfonyl)phenyl)-4-quinolinamine]
4 | 24 nM | Cc1c(N2CCN(C(C)C)C(=O)C2)nc2cc(F)cc(F)c2c1Nc1cncc(N2CCOCC2)c1 [4-(5,7-difluoro-3-methyl-4-((5-(4-morpholinyl)-3-pyridinyl)-amino)-2-quinolinyl)-1-(1-methylethyl)-2-piperazinone]
5 | 2.22 nM | Cc1c(N2CCC[C@H]2C(=O)OC(C)(C)C)nc2cc(F)cc(F)c2c1Nc1cncc(N2CCOCC2)c1 [tert-butyl 1-(5,7-difluoro-3-methyl-4-((5-(4-morpholinyl)-3-pyridinyl)amino)-2-quinolinyl)-L-prolinate]
6 | 645 nM | Cc1c(N2CCN(C(=O)c3ncccn3)CC2)nc2cc(F)cc(F)c2c1Nc1cncc(N2CCOCC2)c1 [5,7-difluoro-3-methyl-N-(5-(4-morpholinyl)-3-pyridinyl)-2-(4-(2-pyrimidinylcarbonyl)-1-piperazinyl)-4-quinolinamine]
7 | 71.3 nM | Cc1c(N2CCN(S(=O)(=O)CC(C)C)CC2)nc2cc(F)cc(F)c2c1Nc1cncc(N2CCOCC2)c1 [5,7-difluoro-3-methyl-2-(4-((2-methylpropyl)sulfonyl)-1-piperazinyl)-N-(5-(4-morpholinyl)-3-pyridinyl)-4-quinolinamine]
8 | 8.22 nM | Cc1ccc(S(C)(=O)=O)c(-c2nc3cc(F)cc(F)c3c(Nc3cc(N4CCOCC4)cnc3N3CCOCC3)c2C)c1 [N-(2,5-di-4-morpholinyl-3-pyridinyl)-5,7-difluoro-3-methyl-2-(5-methyl-2-(methylsulfonyl)phenyl)-4-quinolinamine]
9 | 1.35 nM | Cc1ccc(S(C)(=O)=O)c(-c2nc3cc(F)cc(F)c3c(Nc3cncc(N4CCOCC4)c3)c2C)c1 [5,7-difluoro-3-methyl-2-(5-methyl-2-(methylsulfonyl)phenyl)-N-(5-(4-morpholinyl)-3-pyridinyl)-4-quinolinamine]
10 | 24.4 nM | Cc1c(-c2ccc(N(C)C)nc2)nc2cc(F)cc(F)c2c1Nc1cc(N2CCOCC2)cnc1N1CCOCC1 [2-(6-(dimethylamino)-3-pyridinyl)-N-(2,5-di-4-morpholinyl-3-pyridinyl)-5,7-difluoro-3-methyl-4-quinolinamine]
11 | 119 nM | C=Cc1ccnc(-c2nc3cc(F)cc(F)c3c(Nc3cc(N4CCOCC4)cnc3N3CCOCC3)c2C)c1 [N-(2,5-di-4-morpholinyl-3-pyridinyl)-2-(4-ethenyl-2-pyridinyl)-5,7-difluoro-3-methyl-4-quinolinamine]
12 | 2.57 nM | Cc1c(-c2ccccn2)nc2c(Cl)ccc(F)c2c1Nc1cc(N2CCOCC2)cnc1N1CCOCC1 [8-chloro-N-(2,5-di-4-morpholinyl-3-pyridinyl)-5-fluoro-3-methyl-2-(2-pyridinyl)-4-quinolinamine]
13 | 36.3 nM | Cc1c(-c2ccc(N3CCC(O)C3)nc2)nc2cc(F)cc(F)c2c1Nc1cc(N2CCOCC2)cnc1N1CCOCC1 (centres unmarked) [1-(5-(4-((2,5-di-4-morpholinyl-3-pyridinyl)amino)-5,7-difluoro-3-methyl-2-quinolinyl)-2-pyridinyl)-3-pyrrolidinol]
14 | 51 nM | Cc1c(-c2ccccc2[S@+](C)[O-])nc2cc(F)cc(F)c2c1Nc1cc(N2CCOCC2)cnc1N1CCOCC1 [N-(2,5-di-4-morpholinyl-3-pyridinyl)-5,7-difluoro-3-methyl-2-(2-((S)-methylsulfinyl)phenyl)-4-quinolinamine]
15 | 34.7 nM | Cc1c(-c2ccnc(N3CCNCC3)c2)nc2cc(F)cc(F)c2c1Nc1cc(N2CCOCC2)cnc1N1CCOCC1 [N-(2,5-di-4-morpholinyl-3-pyridinyl)-5,7-difluoro-3-methyl-2-(2-(1-piperazinyl)-4-pyridinyl)-4-quinolinamine]
16 | 7.02 nM | COC(=O)N1CCN(c2nc3cc(F)cc(F)c3c(Nc3cc(N4CCOCC4)cnc3N3CCOCC3)c2C)CC1 [methyl 4-(4-((2,5-di-4-morpholinyl-3-pyridinyl)amino)-5,7-difluoro-3-methyl-2-quinolinyl)-1-piperazinecarboxylate]
17 | 35.2 nM | Cc1c(N2CCN(C)CC2)nc2cc(F)cc(F)c2c1Nc1cncc(N2CCOCC2)c1 [5,7-difluoro-3-methyl-2-(4-methyl-1-piperazinyl)-N-(5-(4-morpholinyl)-3-pyridinyl)-4-quinolinamine]

Row | Ki | SMILES
18 | 131 nM | Cc1c(NCC(=O)O)nc2cc(F)cc(F)c2c1Nc1cncc(N2CCOCC2)c1 [N-(5,7-difluoro-3-methyl-4-((5-(4-morpholinyl)-3-pyridinyl)-amino)-2-quinolinyl)glycine]
19 | 17.5 nM | Cc1c(-c2cc(O)ccc2S(C)(=O)=O)nc2cc(F)ccc2c1Nc1cc(N2CCOCC2)cnc1N1CCOCC1 [3-(4-((2,5-di-4-morpholinyl-3-pyridinyl)amino)-7-fluoro-3-methyl-2-quinolinyl)-4-(methylsulfonyl)phenol]
20 | 56.3 nM | Cc1c(-c2ccc(N3CCNCC3)nc2)nc2cc(F)cc(F)c2c1Nc1cc(N2CCOCC2)cnc1N1CCOCC1 [N-(2,5-di-4-morpholinyl-3-pyridinyl)-5,7-difluoro-3-methyl-2-(6-(1-piperazinyl)-3-pyridinyl)-4-quinolinamine]
21 | 88.4 nM | CCS(=O)(=O)N1CCN(c2nc3cc(F)cc(F)c3c(Nc3cncc(N4CCOCC4)c3)c2C)CC1 [2-(4-(ethylsulfonyl)-1-piperazinyl)-5,7-difluoro-3-methyl-N-(5-(4-morpholinyl)-3-pyridinyl)-4-quinolinamine]
22 | 2.15 nM | Cc1c(-c2ccccn2)nc2cc(F)cc(F)c2c1Nc1cc(N2CCOCC2)cnc1-c1ccc(S(C)(=O)=O)cc1 [5,7-difluoro-3-methyl-N-(2-(4-(methylsulfonyl)phenyl)-5-(4-morpholinyl)-3-pyridinyl)-2-(2-pyridinyl)-4-quinolinamine]
23 | 0.485 nM | Cc1c(-c2ccccn2)nc2cccc(F)c2c1Nc1cc(N2CCOCC2)ccc1S(C)(=O)=O [5-fluoro-3-methyl-N-(2-(methylsulfonyl)-5-(4-morpholinyl)-phenyl)-2-(2-pyridinyl)-4-quinolinamine]
24 | 2.38 nM | Cc1c(N2CCN(C(C)C)C(=O)C2)nc2cc(F)cc(F)c2c1Nc1cc(N2CCOCC2)cnc1N1CCOCC1 [4-(4-((2,5-di-4-morpholinyl-3-pyridinyl)amino)-5,7-difluoro-3-methyl-2-quinolinyl)-1-(1-methylethyl)-2-piperazinone]
25 | 7.93 nM | COc1cc(-c2ncc(N3CCOCC3)cc2Nc2c(C)c(-c3ccccn3)nc3cc(F)cc(F)c23)ccn1 [N-(5,7-difluoro-3-methyl-2-(2-pyridinyl)-4-quinolinyl)-2′-methoxy-5-(4-morpholinyl)-2,4′-bipyridin-3-amine]
26 | 24.8 nM | CCNC(=O)N1CCN(c2nc3cc(F)cc(F)c3c(Nc3cncc(N4CCOCC4)c3)c2C)CC1 [4-(5,7-difluoro-3-methyl-4-((5-(4-morpholinyl)-3-pyridinyl)-amino)-2-quinolinyl)-N-ethyl-1-piperazinecarboxamide]
27 | 25.5 nM | CCOc1ccc(-c2nc3cc(F)cc(F)c3c(Nc3cc(N4CCOCC4)cnc3N3CCOCC3)c2C)cn1 [N-(2,5-di-4-morpholinyl-3-pyridinyl)-2-(6-ethoxy-3-pyridinyl)-5,7-difluoro-3-methyl-4-quinolinamine]
28 | 16.1 nM | Cc1c(-c2cccc3c2ccn3C)nc2cc(F)cc(F)c2c1Nc1cc(N2CCOCC2)cnc1N1CCOCC1 [N-(2,5-di-4-morpholinyl-3-pyridinyl)-5,7-difluoro-3-methyl-2-(1-methyl-1H-indol-4-yl)-4-quinolinamine]
29 | 26.5 nM | Cc1cc(-c2nc3cc(F)cc(F)c3c(Nc3cc(N4CCOCC4)cnc3N3CCOCC3)c2C)ccn1 [N-(2,5-di-4-morpholinyl-3-pyridinyl)-5,7-difluoro-3-methyl-2-(2-methyl-4-pyridinyl)-4-quinolinamine]
30 | 2.26 nM | Cc1c(-c2ccccn2)nc2cc(F)cc(F)c2c1Nc1cc(N2CCOCC2)cnc1-c1cccc(OC(F)F)c1 [N-(2-(3-(difluoromethoxy)phenyl)-5-(4-morpholinyl)-3-pyridinyl)-5,7-difluoro-3-methyl-2-(2-pyridinyl)-4-quinolinamine]
31 | 203 nM | Cc1c(N2CCCCC2=O)nc2cc(F)cc(F)c2c1Nc1cncc(N2CCOCC2)c1 [1-(5,7-difluoro-3-methyl-4-((5-(4-morpholinyl)-3-pyridinyl)-amino)-2-quinolinyl)-2-piperidinone]
32 | 51.9 nM | Cc1c(-c2ccccn2)nc2cc(F)cc(F)c2c1Oc1cncc(N2CCOCC2)c1 [5,7-difluoro-3-methyl-4-((5-(4-morpholinyl)-3-pyridinyl)oxy)-2-(2-pyridinyl)quinoline]
33 | 46.8 nM | Cc1c(-c2ccc(N3CCCC3)nc2)nc2cc(F)cc(F)c2c1Nc1cc(N2CCOCC2)cnc1N1CCOCC1 [N-(2,5-di-4-morpholinyl-3-pyridinyl)-5,7-difluoro-3-methyl-2-(6-(1-pyrrolidinyl)-3-pyridinyl)-4-quinolinamine]
34 | 47.3 nM | Cc1c(-c2cccnc2)nc2cc(F)cc(F)c2c1N(C(=O)C(F)(F)F)c1cncc(N2CCOCC2)c1 [N-(5,7-difluoro-3-methyl-2-(3-pyridinyl)-4-quinolinyl)-2,2,2-trifluoro-N-(5-(4-morpholinyl)-3-pyridinyl)acetamide]

Row | SMILES | Ki
35 | Cc1c(-c2ccccn2)nc2cc(F)cc(F)c2c1Nc1cc(N2CCOCC2)cnc1-c1ccc(O)cc1 [4-(3-((5,7-difluoro-3-methyl-2-(2-pyridinyl)-4-quinolinyl)-amino)-5-(4-morpholinyl)-2-pyridinyl)phenol] | 0.285 nM
